These results are taken from US20250302929A1, “TUMOR NEOANTIGENIC PEPTIDES” (INSTITUT CURIE, priority 2021, published 2025).

Entries after “also recorded” stand apart in the source; their conditions may differ.

For assay [1], the system named is CD8+ T cells from HLA-A2+ healthy donors. Kind of assay: Priming of naive CTLs, in vitro immunogenicity assay, tetramer staining. The class given is cell-based, human. Conditions: for expansion of specific CD8+ T cells (tetramer positive): one donor, versus co-culture without peptides; for specific CD8+ T expansions (immunogenicity): total of 6 donors, FIG. 11A. As for the experimental part:
Priming of naïve CTLs. PBMCs were obtained by Ficoll gradient separation from HLA-A2+ healthy blood donors. CD14+, CD4+ and CD8+ cells were purified by positive selection using magnetic beads (Miltenyi Biotec). While CD4+ and CD8+ T cells were cryopreserved until the experiment day, CD14+ fraction was cultured in the presence of IL-4 (50 ng/ml) and GM-CSF (10 ng/mL) at 10^6 cells/mL during 5 days to obtain moDCs. After this period of time, the moDCs were maturated with LPS and incubated with synthetic ER-derived peptides at a final concentration of 1 μg/mL for 2 hours. Finally, peptide-loaded moDCs were co-cultured with autologous CD4+ and CD8+ T cells in culture medium supplemented with IL-2 (10U/ml) and IL-7 (100 ng/ml). The ER-derived peptide stimulation of specific CD8+ CTL populations was assessed by MHC-I tetramer staining by flow cytometry using a combination of two-color tetramer for each peptide.
(§1) Tetramer Staining. Cells were resuspended in PBS, stained with Live/Dead Aqua-405 nm (ThermoFisher) during 20 minutes at 4° C. and washed once. After that, cells were resuspended in PBS-1% BSA containing the mix of SA-coupled tetramers and incubated in the dark at room temperature during 20 minutes. Without further washing, surface antibodies were added in PBS-1% BSA and cells were incubated 20 minutes in the dark at 4° C. Surface antibodies were a combination of anti-CD3-BV650+ anti-CD8-PECy7 in combination with anti-CCR7-AF700+ anti-CD45RA-BUV395 when required. Finally, cells were washed twice and resuspended in FACS buffer for flow cytometry analysis.
The following step after binding validation to HLA-A2 allele, was to test the immunogenicity of predicted peptides. Priming assays were thus performed to test the ability of identified peptides to expand specific cytotoxic T cells. PBMCs from HLA-A2+ healthy donors were used to generate monocyte derived-DCs (moDCs). After loading the moDCs with a mix of synthetic peptides, autologous co-culture was performed with CD4+ and CD8+ T cells. Finally, the expansion of specific CD8+ T cells was analysed by flow cytometry using two-colours tetramer staining. As a control of specific expansion, the co-culture was performed in the absence of peptides.

Assay [2] deals with CD8+ T cells from tumor, juxta tumor, lymph nodes and blood of LUAD patients. Kind of assay: Tetramer staining of TILs and CD8+ T cells from LUAD patient samples. The assay is classed as cell-based, human. Conditions: TILs from LUAD patients expanded with peptide mix + IL-2 or IL-2 only. Here is the method:
In experiments addressed to evaluate the presence of specific CD8+ T cells, the tetramerization step was performed by incubating the monomers with different combinations of fluorescent streptavidin (PE, APC, PE-Cy5, PE-CF594, BV421, BV711 and FITC).
as §1, with “analysis. […]” for “analysis.”
Tumor infiltrating lymphocytes (TILs) cultures. […] Cells were feed/split as necessary during 15-20 days and cryopreserve or analyzed for tetramer staining.
In a first set of experiments tumor infiltrating lymphocytes (TILs) expanded with a mix of TE-derived peptides and Il-2, or only with Il-2, were analyzed by tetramer staining. […]
In a second cohort of 5 primary, untreated, LUAD tumor, juxta-tumor, tumor-draining lymph node and blood samples from LUAD cancer HLA-A2+ patients were analyzed. […]

Consider AILPKANTV, for which, in assay [1], the “expansion of specific CD8+ T cells (tetramer positive)” value (“expansion of specific CD8+ T cells” below) was “expand specific CD8+ T cells” and the “specific CD8+ T expansions (immunogenicity)” value was “specific CD8+ T expansions”.

In the case of AMDGKELSL, in assay [1], the “specific CD8+ T expansions (immunogenicity)” value is “specific CD8+ T expansions”.

As for FLGTRVTRV, in assay [1], the “specific CD8+ T expansions (immunogenicity)” value was “specific CD8+ T expansions”.

On to FLIVAEILI, for which the “expansion of specific CD8+ T cells” value in assay [1] is recorded as “expand specific CD8+ T cells”.

Consider GLLNISHTA, for which the “specific CD8+ T expansions (immunogenicity)” value in assay [1] was “specific CD8+ T expansions”.

Take GLPSHVELA: the “specific CD8+ T expansions (immunogenicity)” value in assay [1] is given as “specific CD8+ T expansions; also recorded: immunogenic”. For the same sequence, in assay [2], the “tetramer positive CD8+ T cells in TILs” value was “TILs recognizing”.

Regarding ILHSLVTGV, the “specific CD8+ T expansions (immunogenicity)” value in assay [1] is on record as “specific CD8+ T expansions”.

ILSGYGPCV: in assay [1], the “specific CD8+ T expansions (immunogenicity)” value is reported as “specific CD8+ T expansions”.

As for ILTASITSI, in assay [1], the “specific CD8+ T expansions (immunogenicity)” value is “specific CD8+ T expansions”.

Regarding LLDRFGYHV, the “specific CD8+ T expansions (immunogenicity)” value in assay [1] is given as “specific CD8+ T expansions”.

For LLGETKVYV, in assay [1], the “expansion of specific CD8+ T cells” value was “expand specific CD8+ T cells” and the “specific CD8+ T expansions (immunogenicity)” value was “specific CD8+ T expansions”.

Take LLHLESFLV: the “specific CD8+ T expansions (immunogenicity)” value in assay [1] is reported as “specific CD8+ T expansions”.

As to LLTSWHLYL, the “specific CD8+ T expansions (immunogenicity)” value in assay [1] is “specific CD8+ T expansions”.

As to MLMKTVWQA, the “specific CD8+ T expansions (immunogenicity)” value in assay [1] is listed as “specific CD8+ T expansions”.

For MLVTWELAL, the “specific CD8+ T expansions (immunogenicity)” value in assay [1] is on record as “specific CD8+ T expansions”.

Regarding RLADHLSFC, in assay [1], the “expansion of specific CD8+ T cells” value was “expand specific CD8+ T cells” and the “specific CD8+ T expansions (immunogenicity)” value is listed as “specific CD8+ T expansions; also recorded: immunogenic”.

Consider RLLHLESFL, for which, in assay [1], the “expansion of specific CD8+ T cells” value is reported as “expand specific CD8+ T cells” and the “specific CD8+ T expansions (immunogenicity)” value is “specific CD8+ T expansions”.

As for RQAPGFHHA, in assay [1], the “specific CD8+ T expansions (immunogenicity)” value was “specific CD8+ T expansions”.

In the case of SLMQSGSPV, the “specific CD8+ T expansions (immunogenicity)” value in assay [1] was “specific CD8+ T expansions”.

Consider VLLTNTIWL, for which, in assay [1], the “specific CD8+ T expansions (immunogenicity)” value is listed as “specific CD8+ T expansions”.

Turning to VLMWTMAHL, the “specific CD8+ T expansions (immunogenicity)” value in assay [1] was “specific CD8+ T expansions”.

For the sequence YLPYFLKSL, the “specific CD8+ T expansions (immunogenicity)” value in assay [1] is “specific CD8+ T expansions”.

As for YLQGLPLPL, the “specific CD8+ T expansions (immunogenicity)” value in assay [1] is listed as “specific CD8+ T expansions”.

For YLWTTFFPL, in assay [1], the “expansion of specific CD8+ T cells” value was “expand specific CD8+ T cells” and the “specific CD8+ T expansions (immunogenicity)” value is recorded as “specific CD8+ T expansions”.
